From PubChem BioAssay (NCI)
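The compound was tested at five concentrations on cells cultured in 96-well plates, with a 48-hour exposure period. TGI is the concentration that stops growth completely.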

Tests used:
Experiment in all cases: growth of human tumour cells (NCI), 48 h
[1] = test system: TK-10 renal
[2] = test system: SN12C renal
[3] = test system: RPMI-8226 leukemia
[4] = test system: IGROV1 ovarian
[5] = test system: OVCAR-4 ovarian
[6] = test system: UACC-62 melanoma
[7] = test system: COLO 205 colon
[8] = test system: HT29 colon
[9] = test system: MCF7 breast
[10] = test system: HCC-2998 colon
[11] = test system: OVCAR-3 ovarian
[12] = test system: ACHN renal
[13] = test system: SW-620 colon
[14] = test system: SF-268 CNS
[15] = test system: HOP-92 NSCLC
[16] = test system: PC-3 prostate
[17] = test system: 786-0 renal
[18] = test system: HOP-62 NSCLC
[19] = test system: NCI-H460 lung
[20] = test system: MOLT-4 leukemia
[21] = test system: MDA-MB-435
[22] = test system: CAKI-1 renal
[23] = test system: SK-OV-3 ovarian
[24] = test system: SNB-19 CNS
[25] = test system: NCI-H23 lung
[26] = test system: SF-295 CNS
[27] = test system: SK-MEL-2 melanoma
[28] = test system: MALME-3M melanoma
[29] = test system: MDA-MB-231 breast
[30] = test system: EKVX NSCLC
[31] = test system: HS 578T breast
[32] = test system: A549 NSCLC
[33] = test system: K-562 leukemia
[34] = test system: NCI-H522 lung
[35] = test system: MDA-N
[36] = test system: SK-MEL-5 melanoma
[37] = test system: SF-539 CNS
[38] = test system: SK-MEL-28 melanoma
[39] = test system: KM12 colon
[40] = test system: UACC-257 melanoma
[41] = test system: A498 renal
[42] = test system: U251 CNS
[43] = test system: OVCAR-8 ovarian
[44] = test system: DU-145 prostate
[45] = test system: HCT-116 colon
[46] = test system: SNB-75 CNS
[47] = test system: SR leukemia
[48] = test system: HCT-15 colon
[49] = test system: NCI-H226 lung
[50] = test system: RXF 393 renal
[51] = test system: CCRF-CEM leukemia
[52] = test system: HL-60(TB) leukemia
[53] = test system: BT-549 breast
[54] = test system: OVCAR-5 ovarian
[55] = test system: M14 melanoma
[56] = test system: LOX IMVI melanoma

SMILES: Nc1nc(Cl)cc(NCC2(CO)CC(CCCCc3ccccc3)C2)n1 (stereo unspecified)
- TGI [1]: > 100 µM
- TGI [2]: > 100 µM
- TGI [3]: 86.2 µM
- TGI [4]: > 100 µM
- TGI [5]: > 100 µM
- TGI [6]: > 100 µM
- TGI [7]: > 100 µM
- TGI [8]: 35.3 µM
- TGI [9]: > 100 µM
- TGI [10]: > 100 µM
- TGI [11]: > 100 µM
- TGI [12]: > 100 µM
- TGI [13]: > 100 µM
- TGI [14]: > 100 µM
- TGI [15]: > 100 µM
- TGI [16]: > 100 µM
- TGI [17]: > 100 µM
- TGI [18]: > 100 µM
- TGI [19]: > 100 µM
- TGI [20]: > 100 µM
- TGI [21]: > 100 µM
- TGI [22]: > 100 µM
- TGI [23]: > 100 µM
- TGI [24]: > 100 µM
- TGI [25]: > 100 µM
- TGI [26]: > 100 µM
- TGI [27]: > 100 µM
- TGI [28]: > 100 µM
- TGI [29]: > 100 µM
- TGI [30]: > 100 µM
- TGI [31]: > 100 µM
- TGI [32]: > 100 µM
- TGI [33]: > 100 µM
- TGI [34]: > 100 µM
- TGI [35]: > 100 µM
- TGI [36]: > 100 µM
- TGI [37]: > 100 µM
- TGI [38]: > 100 µM
- TGI [39]: > 100 µM
- TGI [40]: > 100 µM
- TGI [41]: > 100 µM
- TGI [42]: > 100 µM
- TGI [43]: > 100 µM
- TGI [44]: > 100 µM
- TGI [45]: > 100 µM
- TGI [46]: > 100 µM
- TGI [47]: > 100 µM
- TGI [48]: > 100 µM
- TGI [49]: > 100 µM
- TGI [50]: > 100 µM
- TGI [51]: > 100 µM
- TGI [52]: 38.3 µM
- TGI [53]: > 100 µM
- TGI [54]: > 100 µM
- TGI [55]: > 100 µM
- TGI [56]: > 100 µM
